Assays:
[1] = Growth promoting activity / feed utilization in livestock (general statements); assay type: in vivo
[2] = In vivo testing in rats: growth, feed conversion and carcass composition; set-up: species or system rat (male Charles River CD); settings: in diet, dose equivalent to 20 ppm clenbuterol (clenbuterol: 10)
Description: Eighty intact, male Charles River CD rats, 75-90 g, were housed and maintained on rat chow and water ad libitum. After four days acclimation ten rats per group were randomized by weight to treatment and pen. Compounds to be tested were premixed and added to ground rat chow using doses equivalent to 20 ppm of clenbuterol on a molecular weight basis. It had previously been determined 10 ppm of clenbuterol was the minimum dose needed to give maximum improvements in gain and feed conversion. Therefore, the results of any compound tested should cause responses similar to clenbuterol if the compound has half or more the activity of clenbuterol.

[3] = test system: Isolated Swine Adipocytes; assay: Stimulation of lipolysis (glycerol production) in isolated swine adipocytes; assay type: cell-based; settings: Sus scrofa, Adipocyte, 2 h, Test 1, read-out: percent increase compared to control, glycerol production
Description: (§1) Fat was collected from freshly killed animals as follows: epididymal and perirenal fat from 150 to 200 g male rates; perirenal fat from 20 to 25 kg whether lambs, and perirenal and omental fat from 35 to 50 kg gilts. Immediately after collection, fat was placed in a siliconized beaker (all glassware was siliconized) containing Krebs-Ringer bicarbonate solution (KRB; pH 7.4) at 37° C. Fat was transferred to a clean beaker and finely chopped with scissors. Chopped fat was then used as such (whole adipose preparation) or treated with collagenase (isolated adipocytes).
(§2) Chopped fat was placed in a shaker containing 70 ml cell dispersion medium (CDM; 5 mM glucose, 0.1% collagenase, 4% bovine serum albumin (BSA), in KRB) and incubated at 37° C. for 1 hour with gentle shaking. Fat was then filtered to remove clumps and washed 4 times with washing medium (WM; 2.5 mM glucose, 1% BSA, in KRB) and 1 time with final suspension medium (FSM; 2.5 mM glucose, 2% essentially fatty acid free BSA, in KRB). Isolated adipocytes were then resuspended in the required amount of FSM (1 ml/flask, 3 flasks/treatment).
(§3) Whole adipose tissue from the rat (0.3 ml) or isolated adipocytes from sheep or swine (1 ml) were placed in plastic scintillation vials containing FSM (1.7 or 1 ml, respectively) and test compounds, and incubated at 37° C. for 2 hours. […] Isoproterenol, at the same concentrations, was used as a positive control. After incubation, media was removed and assayed for glycerol by a fluorometric modification of the method of Wieland (1974. Glycerol UV-method. pp. 1404. In: Bergmeyer (Ed.) Methods of Enzymatic Analysis. Verlag Chemie Weinham, Academic Press, New York).

[4] = test system: Isolated Chicken Hepatocytes; assay: Inhibition of lipogenesis (14C acetate incorporation) in isolated chicken hepatocytes; assay type: cell-based; settings: Gallus gallus, Hepatocyte, 2 h, Test 1, read-out: percent change compared to control, 14C acetate incorporation in fatty acids
Description: Determination of anti-lipogenic activity in hepatocytes
Hepatocytes were isolated from chicken liver using the procedure for adipocytes and incubated for 2 hours at 37° C. in the presence of ^14 C acetate and test compounds. […] Isoproterenol, at the same concentrations, was used as a positive control. After incubation, 8 ml Doles reagent (isopropanol:hexane:H2 SO4, 40:10:1) was added and incubation vials were shaken at room temperature for 30 minutes. Vial contents were poured into 50 ml screw-cap tubes. Vials were then rinsed with 6 ml hexane which was poured into the appropriate 50 ml tube. Tubes were shaken by hand, 10 ml H2 O was added, and tubes were shaken again. After phase separation, 2 ml of the upper (hexane) phase was removed to scintillation vials. Hexane was evaporated by a gentle air flow and the remaining lipids were resuspended in 10 ml Scinti Verse II. ^14 C was counted in a Packard liquid scintillation counter. Data are reported as CPM of ^14 C acetate incorporated into total lipids.

[5] = test system: Isolated Ovine Adipocytes; assay: Stimulation of lipolysis (glycerol production) in isolated ovine adipocytes; assay type: cell-based, sheep; settings: Test 1
Description: as §1, §2, §3

Rat Adipose Tissue = assay: Stimulation of lipolysis (glycerol production) in chopped rat adipose tissue; assay type: cell-based; settings: Rattus norvegicus, 2 h, Test 1, read-out: percent increase compared to control, glycerol production
Description: as §1
as §3, with “York). […]” for “York).”

SMILES | activation at 0.01 µM [3] [%] | activation at 0.05 µM [3] [%] | activation at 0.25 µM [3] [%] | inhibition at 0.01 µM [4] [%] | inhibition at 0.05 µM [4] [%] | inhibition at 0.25 µM [4] [%] | activation at 0.01 µM (Rat Adipose Tissue) [%] | activation at 0.05 µM (Rat Adipose Tissue) [%] | activation at 0.25 µM (Rat Adipose Tissue) [%] | also measured
CC(C)(C)NCC(O)c1ccc(O)c(O)c1 (stereo not shown) [Compound X, Colterol] | – | – | – | – | – | – | – | – | – | growth promoting activity, oral ([1]; administered orally): very little activity; growth promoting activity, parenteral ([1]; administered parenterally): substantially active
COc1ccc(CNc2cc(C(O)CNC(C)(C)C)ccc2O)cc1 (stereo not shown) [III] | 20 | 33 | 53 | 9.5 | 35.5 | 54.4 | 194 | 203 | 334 | Gain ([2]; Test 1, control 7.3): 8.0 g/day; Feed Intake ([2]; Test 1, control 18.6): 19.4 g/day; Weight ([2]; Test 1, control 191.8): 201.7 g; Carcass Composition % of Change over Control, Fat ([2]; Test 1): -7.0%; Carcass Composition % of Change over Control, Protein ([2]; Test 1): 6.1%; activation at 0.01 µM ([5]; Ovis aries, Adipocyte, 2 h, 0.01 μM, read-out: percent increase compared to control, glycerol production): 465%; activation at 0.05 µM ([5]; Ovis aries, Adipocyte, 2 h, 0.05 μM, read-out: percent increase compared to control, glycerol production): 845%
CC(C)(C)NCC(O)c1cc(Br)no1 (stereo not shown) [II] | 27 | -7 | -40 | 0 | 0 | 7.9 | 51 | 15 | 35 | Gain ([2]; Test 2, control 7.5): 8.4 g/day; Feed Intake ([2]; Test 2, control 19.3): 21.1 g/day; Weight ([2]; Test 2, control 202.3): 215.9 g; Carcass Composition % of Change over Control, Fat ([2]; Test 2): -9.3%; Carcass Composition % of Change over Control, Protein ([2]; Test 2): 3.8%; activation at 0.25 µM ([5]; Ovis aries, Adipocyte, 2 h, 0.25 μM, read-out: percent increase compared to control, glycerol production): 325%; percent increase compared to control, glycerol production ([5]; 0.05 μM): inactive

Reference: patent US4847302A, “Use of certain compounds in livestock food as growth promotants for better feed utilization and improved carcass composition” (Merck & Co., Inc., priority 1988, dated 1989)
